Results on one molecule are retold here after US4160829A, “Antibacterial 1,2,4-oxadiazolylacetamido cephalosporins” (Gist-Brocades N.V., priority 1972, dated 1979).

One series deals with Staph.aureus A 2001. The series can be described thus: micro serial dilution test. Format: cell-based, Staphylococcus aureus. Conditions: Staphylococcus aureus, A2001, 18 h, micro serial dilution (in brackets), about 18 hours, 30° C. or 37° C.; read-out: minimal inhibitory concentration (MIC).
The next series has as its system Salm.dubl. P 43. The series can be described thus: agar serial dilution test. Format: cell-based, Salmonella dublin. As to conditions: Salmonella enterica; agar serial dilution, 24 hours, 37° C.; read-out: minimal inhibitory concentration (MIC).
Series [1] can be described thus: blood and urine contents after intramuscular administration in rabbits. Format: in vivo, rabbits "Nieuw Zeelander". Conditions: rabbit, im, intramuscular 50 mg/kg. As to the method:
(d) the blood and urine contents of the above-indicated compound G and of monosodium 7-[(3-carboxymethyl-1,2,4-oxadiazol-5-yl)acetamido]-3-acetoxymethyl-3-cephem-4-carboxylate (as prepared in example 35) were determined after intramuscular administration of these compounds in an aqueous solution in rabbits, as listed below:
test animals: rabbits "Nieuw Zeelander"
Each testgroup consisted of 3 rabbits.
Vehiculum: Physiol. saline solution
Bloodsamples were taken after 1/4--1/2--1--2--4 hours Urinesamples were taken after 1--3--6--24--27 hours (in practice only the secreted amounts after 6 and 24 hours were used).
Testorganisms: Bacillus subtilis ATCC 6633 and Bacillus callidolactis E 16.
The contents of the compounds in the samples were determined microbiologically.
(Only microbiologically detected concentrations, i.e. anti-bacterially active concentrations only have been indicated and determined in relation to the original administered compound).

The test system of a further series is Actinob.equ. T 3. The series can be described thus: agar serial dilution test. Format: cell-based. As to conditions: 24 hours, 37° C., read-out: minimal inhibitory concentration (MIC).
The next series deals with Pseud.aerug. 2396. Put plainly: agar serial dilution test. Format: cell-based. As to conditions: agar serial dilution, 24 hours, 37° C.; read-out: minimal inhibitory concentration (MIC).
Another series has as its system Prot.mirab. L 93. Put plainly: agar serial dilution test. Format: cell-based, Proteus mirabilis. As to conditions: Proteus mirabilis; agar serial dilution, 24 hours, 37° C.; read-out: minimal inhibitory concentration (MIC).

Turning to `Cc1noc(CC(=O)N[C@@H]2C(=O)N3C(C(=O)O)=C(CSc4nnnn4C)CS[C@H]23)n1` [Compound G, sodium-7[(3-methyl-1,2,4-oxadiazol-5-yl)-acetamido] 3 [1-methyl-tetrazol-5-yl-mercaptomethyl] 3-cephem-4-carboxylate], the MIC in the series with Staph.aureus A 2001 was found to be 0.6 µg/mL; in the series with Salm.dubl. P 43 it was 1.5 µg/mL; in the series on Actinob.equ. T 3, 0.5 µg/mL; with Pseud.aerug. 2396 it was 100 µg/mL; in the series with Prot.mirab. L 93, 3 µg/mL. Besides, in series [1] (serum, after 1/2 hr, read-out: Serumlevel), the concentration at 0.5 h is 137000 ng/mL. Moreover, the concentration at 0.25 h in series [1] (serum, after 1/4 hr, read-out: Serumlevel) stood at 157000 ng/mL. For the same molecule, the concentration at 1 h in series [1] (serum, after 1 hr, read-out: Serumlevel) was found to be 49000 ng/mL. Further, the concentration at 2 h in series [1] (serum, after 2 hr, read-out: Serumlevel) was 25000 ng/mL. Also, the concentration at 4 h in series [1] (serum, after 4 hr, read-out: Serumlevel) turned out to be 6700 ng/mL. Moreover, in series [1] (urine, after 6 hr, read-out: Secretion of compound in urine in % of the administered dose), the dose excreted at 6 h was 51.3%. In addition, the dose excreted at 24 h in series [1] (urine, after 24 hr, read-out: Secretion of compound in urine in % of the administered dose) came out at 55.5%.
